Legend:
cTnI.2 wt myocytes = assay: Mitochondrial membrane potential (JC-1) response to BayK(−), wt myocytes (Example 10); format: cell-based, mouse; details: 0.5 μM peptide, calcium-free, FIG. 11A
Method: (§1) In this experiment wt myocytes were pre-exposed to 0.1, 0.5 or 1 μM for 20 min and assessed changes in flavoprotein oxidation and ψm.
Measurement of mitochondrial membrane potential: The fluorescent indicator 5,5′,6,6′-tetrachloro1,1′,3,3′-tetraethylbenzimidazolylcarbocyanine iodide (JC-1) was used to measure mitochondrial membrane potential (ψm) as previously described (Viola H M, Arthur P G, Hool L C. Transient exposure to hydrogen peroxide causes an increase in mitochondria-derived superoxide as a result of sustained alteration in L-type Ca2+ channel function in the absence of apoptosis in ventricular myocytes. Circ Res. 2007; 100(7):1036-44). […] Images were acquired at 2 min intervals with 50 ms exposure. Metamorph 6.3 (Version 7.10.3) was used to quantify the signal by manually tracing myocytes. An equivalent region not containing cells was used as background and was subtracted. The 580 nm/535 nm ratiometric fluorescence values recorded over 6 min before and 4 min after addition of drugs were averaged and alterations in fluorescent ratios reported as the percentage increase from the basal average. […] In addition, individual 580 and 535 signals were assessed in each experiment to determine whether the fluorescent indicator was accurately measuring ψm. […]
Based on results obtained from in vitro assessment of flavoprotein oxidation, the effect of 0.5 μM AID-TAT variants on changes in mitochondrial membrane potential (ψm) was further explored. Experiments were performed using JC-1 fluorescence under calcium-free conditions as previously described (Viola H, Johnstone V, Cserne Szappanos H, Richman T, Tsoutsman T, Filipovska A, et al. The L-type Ca(2+) channel facilitates abnormal metabolic activity in the cTnI-G2035 mouse model of hypertrophic cardiomyopathy. J Physiol. 2016; 594(14):4051-70; Viola H M, Shah A A, Johnstone V P A, Cserne Szappanos H, Hodson M P, Hool L C. Characterization and validation of a preventative therapy for hypertrophic cardiomyopathy in a murine model of the disease. Proc Natl Acad Sci U S A. 2020; 117(37):23113-24). […]

[1] = system: cTnI-G203S mutant myocytes; assay: Mitochondrial membrane potential (JC-1) response to BayK(−), cTnI-G203S myocytes (Example 10); format: cell-based, mouse
Method: as §1
Measurement of mitochondrial membrane potential: The fluorescent indicator 5,5′,6,6′-tetrachloro1,1′,3,3′-tetraethylbenzimidazolylcarbocyanine iodide (JC-1) was used to measure mitochondrial membrane potential (ψm) as previously described (Viola H M, Arthur P G, Hool L C. Transient exposure to hydrogen peroxide causes an increase in mitochondria-derived superoxide as a result of sustained alteration in L-type Ca2+ channel function in the absence of apoptosis in ventricular myocytes. Circ Res. 2007; 100(7):1036-44). […] Images were acquired at 2 min intervals with 50 ms exposure. Metamorph 6.3 (Version 7.10.3) was used to quantify the signal by manually tracing myocytes. An equivalent region not containing cells was used as background and was subtracted. The 580 nm/535 nm ratiometric fluorescence values recorded over 6 min before and 4 min after addition of drugs were averaged and alterations in fluorescent ratios reported as the percentage increase from the basal average. To confirm that the signal was indicative of ψm, 40 mM NaCN was added at the end of each experiment to collapse ψm. In addition, individual 580 and 535 signals were assessed in each experiment to determine whether the fluorescent indicator was accurately measuring ψm. For calcium-free experiments, cells were exposed to calcium-free HBS (supplemented with 3 mM EGTA and 200 nM JC-1) for at least 3 h prior to measuring changes in ψm.
Based on results obtained from in vitro assessment of flavoprotein oxidation, the effect of 0.5 μM AID-TAT variants on changes in mitochondrial membrane potential (ψm) was further explored. Experiments were performed using JC-1 fluorescence under calcium-free conditions as previously described (Viola H, Johnstone V, Cserne Szappanos H, Richman T, Tsoutsman T, Filipovska A, et al. The L-type Ca(2+) channel facilitates abnormal metabolic activity in the cTnI-G2035 mouse model of hypertrophic cardiomyopathy. J Physiol. 2016; 594(14):4051-70; Viola H M, Shah A A, Johnstone V P A, Cserne Szappanos H, Hodson M P, Hool L C. Characterization and validation of a preventative therapy for hypertrophic cardiomyopathy in a murine model of the disease. Proc Natl Acad Sci U S A. 2020; 117(37):23113-24). […] FIG. 11 presents the mean+/−SE of JC-1 fluorescence from cTnI.2 wt and cTnI-G203S mutant myocytes before and after exposure to 10 μM BayK(−) in the presence of 1 μM AID(S)-TAT, and 0.5 μM of variant peptides as indicated. N=no. of animals, n=no. of cardiomyocytes. P values shown compared with AID(S)-TAT as determined by the Kruskal-Wallis test.

cTnI-G203S mice = assay: Myocardial fibrosis, Masson's Trichrome collagen volume fraction; format: in vivo, mouse; details: 5 μM, 3×/wk/5 wk from 20 weeks of age; versus cTnI-G203S AID(S)-TAT; FIG. 14
From the text: Following completion of treatment regimes, mouse hearts were extracted and prepared for Masson's Trichchrome staining based on previously described methods with minor modifications (Van De Vlekkert D, Machado E, d'Azzo A. Analysis of Generalized Fibrosis in Mouse Tissue Sections with Masson's Trichrome Staining. Bio Protoc. 2020; 10(10):e3629). Hearts were washed in PBS and fixed overnight in 10% buffered formalin saline (FSAL-5L; Hurst Scientific, AUS). After fixation, hearts were washed 3×10 min in PBS and incubated overnight in 30% sucrose solution (in PBS). […]
To observe the levels of cardiac fibrosis in mice, a minimum of 15 sections of microscopic fields for each animal were selected randomly for histological analysis. Images of heart sections were obtained using a Nikon upright light microscope (DS-Qi2, Japan) at 20× magnification and analysed using ImageJ (NIH). […]
Here we assessed the efficacy of treating 20-week-old pre-hypertrophic cTnI-G203S mice with 5 μM AID-TAT variant peptides (3×/wk/5 wk) on the development and progression of fibrosis. […] Images were acquired using a Nikon Upright Microscope and collagen volume fraction (%) was determined using ImageJ colour thresholding. […] Values reported as mean±SEM; P values compared with cTnI-G203S AID(S)-TAT as determined by the Kruskal-Wallis test.

## AIDP7-TAT: QQQEEDLKGYLDWITQAE with TAT sequence
cTnI.2 wt myocytes
  BayK(−) induced increase in ψm (JC-1 fluorescence): significantly attenuated the response
[1]; 0.5 μM peptide, calcium-free, FIG. 11B
  BayK(−) induced increase in ψm (JC-1 fluorescence): significantly attenuated the response
[1]; flavoprotein oxidation and JC-1 data together
  normalising mitochondrial metabolic activity (in vitro, overall): most effective in normalising mitochondrial metabolic activity
cTnI-G203S mice
  left ventricular posterior wall collagen volume fraction (CVF, %): significantly decreased

— US20240158447A1, “PEPTIDES FOR USE IN THE TREATMENT OR PREVENTION OF MYOCARDIAL DAMAGE” (THE UNIVERSITY OF WESTERN AUSTRALIA, priority 2020, published 2024)
